In brackets after ≈: the same amount, converted by molar mass. Read-outs that look alike come from different tables or passages of the source. Peptide text beside a SMILES is read from it.
What was measured:
Type in all cases: cell-based
S. Typhimurium PY01 = test: MIC, colistin-susceptible S. Typhimurium, with and without otilonium bromide; conditions: Salmonella enterica
A. baumannii 17978 = test: Killing of starvation-induced tolerant cells; conditions: with otilonium bromide, 24-hour treatment
Description: (§1) Starvation-induced bacterial sub-population tolerant cells of colistin-resistant and colistin-susceptible E. coli and A. baumannii strains are tested against the bactericidal effect of the combination of otilonium bromide and colistin. […] The incubation temperature is 37° C. Ob and colistin are added at the same time.

[1] = test system: colistin-susceptible E. coli J53; test: Killing of starvation-induced tolerant cells; conditions: with otilonium bromide, 24-hour treatment
Description: as §1

[2] = test system: colistin-susceptible E. coli; test: Time-kill curves
Description: (§2) However, the effective bactericidal concentration of colistin could be reduced to 8 μg/ml in the presence of 20 μg/ml of otilonium bromide. For colistin-susceptible E. coli, 8 μg/ml of colistin is required to eradicate the strains. However, in the presence of 20 μg/ml of otilonium bromide 1 μg/ml colistin is sufficient to achieve complete eradication of the organism. […] Thus, without intending to be limited by theory, it is believed that this synergistic mechanism is not limited to the inhibition of the colistin resistance mechanism.

[3] = test system: colistin-resistant E. coli; test: Time-kill curves
Description: as §2

mcr-1-bearing E. coli = test: LIVE/DEAD cell viability assay, fluorescence microscopy; conditions: 8 μg/ml of colistin alone
Description: Fluorescence microscopy quantifies the number of live and dead cells and determines the degree of reduction in colistin concentration in the drug combination required for effective eradication of the test organism. […] However, in the presence of 20 μg/ml of otilonium bromide, 4 μg/ml of colistin eradicates >97% of the bacteria.

E. coli Bw25113 = test: MIC, colistin-susceptible E. coli, with and without otilonium bromide; conditions: Escherichia coli
[4] = test system: P. aeruginosa PAO1 and PAERC 11.603; test: Divalent ion MIC-dependency in supplemented MHB
Description: In FIGS. 5e and 5f, colistin MICs of P. aeruginosa PAO1 and PAERC 11.603, respectively, are determined in MHB supplemented with different Ca^2+ ion concentrations.
Accordingly, it is believed that the addition of a chelant; or a chelant for divalent ions; or a divalent cation chelant, may further improve the activity of the drug formulation, method of use/treatment, disinfection composition, etc. of the present invention.

E. coli J53 = test: MIC checkerboard dilution assay, otilonium bromide vs. colistin; conditions: Escherichia coli
[5] = test system: A. baumannii (colistin-resistant); test: MIC, colistin-resistant A. baumannii isolates, with and without otilonium bromide; conditions: for MIC: Acinetobacter baumannii
[6] = test system: E. coli (colistin-resistant); test: MIC, colistin-resistant E. coli clinical isolates, with and without otilonium bromide; conditions: Escherichia coli
[7] = colistin alone, read-out: Colistin MIC, Colistin
[8] = in the presence of 10 ug/ml Ob, read-out: Colistin MIC, Colistin + 10 ug/ml Ob
[9] = in the presence of 20 ug/ml Ob, read-out: Colistin MIC, Colistin + 20 ug/ml Ob
[10] = in the presence of 20 μg/ml of otilonium bromide

For `CCC(C)CCCC(=O)N[C@@H](CCN)C(=O)N[C@H](C(=O)N[C@@H](CCN)C(=O)N[C@H]1CCNC(=O)[C@H]([C@@H](C)O)NC(=O)[C@H](CCN)NC(=O)[C@H](CCN)NC(=O)[C@H](CC(C)C)NC(=O)[C@@H](CC(C)C)NC(=O)[C@H](CCN)NC1=O)[C@@H](C)O` (stereo partly drawn) [Colistin] (HELM PEPTIDE1{[CCC(C)CCCC(=O)[*:2]].[Dab].T.[Dab].[Dab].[Dab].[dL].L.[Dab].[Dab].T}$PEPTIDE1,PEPTIDE1,5:R3-11:R2$$$V2.0), the MIC (S. Typhimurium PY01; [7]) was 2 µg/mL (≈ 1.73 µM), the MIC (S. Typhimurium PY01; [8]) was 0.125 µg/mL and the MIC (S. Typhimurium PY01; [9]) was 0.03 µg/mL. The “concentration of colistin required to completely eradicate tolerant sub-population” value (A. baumannii 17978) was 1 µg/mL, the “concentration of colistin required to completely eradicate tolerant sub-population” value [1] was 1 µg/mL and the “colistin required to eradicate the strains (time-kill)” value ([2]; colistin alone) was 8 µg/mL. For the same compound, the “colistin sufficient for complete eradication (time-kill)” value [2, 10] was 1 µg/mL, the “colistin concentration inhibiting growth (time-kill)” value ([3]; colistin alone) was at least 32 µg/mL and the “effective bactericidal concentration of colistin (time-kill)” value [3, 10] was 8 µg/mL. For the same compound, the “live/dead state of cells” value (mcr-1-bearing E. coli) was “most or all mcr-1-bearing E. coli strains were alive”, the MIC (E. coli Bw25113; [7]) was 2 µg/mL (≈ 1.73 µM) and the MIC (E. coli Bw25113; [8]) was 0.03 µg/mL. The MIC (E. coli Bw25113; [9]) was at most 0.015 µg/mL, the “effect of supplemented Ca2+ and Mg2+ on MIC” value [4] was “increase the MIC” and the MIC (E. coli J53; 10 μg/ml of otilonium bromide) was at most 0.016 µg/mL. The MIC (E. coli J53; colistin alone) was 1 µg/mL, the “Colistin MIC, Colistin” value ([5]; A. baumannii ABJZ-46, colistin-resistant, colistin alone) was 4 µg/mL and the “Colistin MIC, Colistin” value ([5]; A. baumannii ABJZ-50, colistin-resistant, colistin alone) was 4 µg/mL. The “Colistin MIC, Colistin” value ([5]; A. baumannii ABJZ-72, colistin-resistant, colistin alone) was 4 µg/mL, the MIC ([5]; ATCC17978, read-out: Colistin MIC, Colistin + 10 ug/ml Ob, A. baumannii ATCC17978, colistin-resistant, in the presence of 10 ug/ml Ob) was 0.125 µg/mL and the MIC ([5]; read-out: Colistin MIC, Colistin + 10 ug/ml Ob, A. baumannii ABJZ-45, colistin-resistant, in the presence of 10 ug/ml Ob) was 0.0625 µg/mL. The MIC ([5]; read-out: Colistin MIC, Colistin + 10 ug/ml Ob, A. baumannii ABJZ-46, colistin-resistant, in the presence of 10 ug/ml Ob) was 0.5 µg/mL, the MIC ([5]; read-out: Colistin MIC, Colistin + 10 ug/ml Ob, A. baumannii ABJZ-50, colistin-resistant, in the presence of 10 ug/ml Ob) was 0.25 µg/mL and the MIC ([5]; read-out: Colistin MIC, Colistin + 10 ug/ml Ob, A. baumannii ABJZ-72, colistin-resistant, in the presence of 10 ug/ml Ob) was 0.125 µg/mL. It also gave an MIC ([5]; A. baumannii ABJZ-45, colistin-resistant, colistin alone, read-out: Colistin MIC, Colistin) of 4 µg/mL (≈ 3.46 µM), an MIC ([5]; A. baumannii ATCC17978, colistin-resistant, colistin alone, read-out: Colistin MIC, Colistin) of 4 µg/mL (≈ 3.46 µM) and an MIC ([6]; E. coli 5, colistin-resistant, colistin alone, read-out: Colistin MIC, Colistin) of 8 µg/mL (≈ 6.92 µM). The MIC ([6]; E. coli 5, colistin-resistant, in the presence of 10 ug/ml Ob, read-out: Colistin MIC, Colistin + 10 ug/ml Ob) was 4 µg/mL, the MIC ([6]; E. coli 5, colistin-resistant, in the presence of 20 ug/ml Ob, read-out: Colistin MIC, Colistin + 20 ug/ml Ob) was at most 0.25 µg/mL and the MIC ([6]; E. coli 12.12.0487, colistin-resistant, colistin alone, read-out: Colistin MIC, Colistin) was 8 µg/mL (≈ 6.92 µM). The MIC ([6]; E. coli 12.12.0487, colistin-resistant, in the presence of 10 ug/ml Ob, read-out: Colistin MIC, Colistin + 10 ug/ml Ob) was 2 µg/mL, the MIC ([6]; E. coli 12.12.0487, colistin-resistant, in the presence of 20 ug/ml Ob, read-out: Colistin MIC, Colistin + 20 ug/ml Ob) was 0.5 µg/mL and the MIC ([6]; E. coli 101, colistin-resistant, colistin alone, read-out: Colistin MIC, Colistin) was 8 µg/mL (≈ 6.92 µM). The MIC ([6]; E. coli 101, colistin-resistant, in the presence of 10 ug/ml Ob, read-out: Colistin MIC, Colistin + 10 ug/ml Ob) was 4 µg/mL, the MIC ([6]; E. coli 101, colistin-resistant, in the presence of 20 ug/ml Ob, read-out: Colistin MIC, Colistin + 20 ug/ml Ob) was 1 µg/mL and the MIC ([6]; E. coli 119, colistin-resistant, colistin alone, read-out: Colistin MIC, Colistin) was 16 µg/mL (≈ 13.8 µM). It also gave an MIC ([6]; E. coli 119, colistin-resistant, in the presence of 10 ug/ml Ob, read-out: Colistin MIC, Colistin + 10 ug/ml Ob) of 4 µg/mL, an MIC ([6]; E. coli 119, colistin-resistant, in the presence of 20 ug/ml Ob, read-out: Colistin MIC, Colistin + 20 ug/ml Ob) of 2 µg/mL and an MIC ([6]; E. coli 812, colistin-resistant, colistin alone, read-out: Colistin MIC, Colistin) of 16 µg/mL (≈ 13.8 µM). It also gave an MIC ([6]; E. coli 812, colistin-resistant, in the presence of 10 ug/ml Ob, read-out: Colistin MIC, Colistin + 10 ug/ml Ob) of 4 µg/mL and an MIC ([6]; E. coli 812, colistin-resistant, in the presence of 20 ug/ml Ob, read-out: Colistin MIC, Colistin + 20 ug/ml Ob) of 1 µg/mL.

— patent publication US12220440B2, “Drug composition, method for treating infection, disinfecting composition, and drug adjuvant” (priority 2022, dated 2025)
